Data from patent US8044071B2, “Method for reducing side effects of CB2 receptor agonist therapy using a combination of a selective CB2 receptor agonist and a selective CB1 receptor antagonist” (Abbott Laboratories, priority 2007, dated 2011).

How the values were obtained:
Type in all cases: in vivo
[1] = tested on: spontaneous locomotor activity; experiment: Measurement of locomotor activity (open field, horizontal activity); conditions: rat; for horizontal locomotor activity, agonist after rimonabant: 30 μmol/kg i.p., rimonabant 30 μmol/kg i.p. 15 min before
Method: Adverse effects may also be determined by the Measurement of Locomotor Activity. Spontaneous activity is assessed in an open-field environment (42 (length)×42 (base)×40 cm (height); Piper Plastics, Libertyville, Ill.) situated inside Versamax/Digiscan monitors, each equipped with infrared sensors (AccuScan Instruments, Inc., Columbus, Ohio) in a dimly illuminated test room. Following administration of test compounds or vehicle control, rats are individually placed into the test chambers and horizontal (locomotion) activity is recorded for 30 min. A reduction in horizontal motor activity for a test compound compared to the effect of vehicle is a measure of adverse effects; the greater the reduction in activity, the greater the adverse effect. Data is analyzed by ANOVA followed by Fisher's Protected Least significant difference (PLSD) analysis as a post hoc comparison (JMP statistic database; SAS Institute, Inc., Cary, N.C.). A p<0.05 was considered significant.
These effects also indicate that the reduction in locomotor activity by CB2 agonist B results from its residual activation of the CB1 receptor.
Using the locomotor activity assay, the effects of CB2 agonist A were evaluated after the administration of vehicle or the CB1 antagonist rimonabant. This effect was compared with the administration of vehicle after the administration of vehicle or the CB1 antagonist rimonabant. A first dose, consisting of CB1 antagonist rimonabant (30 μmol/kg i.p.) or a vehicle (5% DMSO/PEG), was administered 15 minutes before a second dose, consisting of administration of CB2 agonist A (30 μmol/kg i.p.) or vehicle. Locomotor testing was conducted 30 minutes after administration of the second dose, either CB2 agonist A or vehicle. […] CB2 agonist A administered after vehicle decreased horizontal locomotor activity by 91%.

hind limb grip force = experiment: Grip force behavior (hind limb); conditions: rat, 30 μmol/kg i.p.
Method: Adverse effects can be assessed by measurements of Grip Force (GF) Behavior. Measurements of hind limb grip force are conducted by recording the maximum compressive force exerted on the hind limb strain gauge setup, in a commercially available grip force measurement system (Columbus Instruments, Columbus, Ohio). During testing, animals are gently restrained by grasping around its rib cage and then allowed to grasp the wire mesh frame (10×12 cm^2) attached to the strain gauge. The experimenter then moves the animal in a rostral-to-caudal direction until the grip is broken. Each animal is sequentially tested twice at approximately 2-3 min interval to obtain a raw mean grip force (CFmax). This raw mean grip force data is in turn converted to a maximum hindlimb compressive force (CFmax) (gram force)/kg body weight for each animal. A group mean±S.E.M. for CFmax/kg body weight is calculated. A group of age-matched naïve animals are added to each experiment and the data obtained from the different dose groups for each compound—or compound combination—being tested are compared to the naïve group (assigned as being 100% normal). […]
Using the grip force behavior assay, the effects of CB2 agonist B were evaluated after the administration of vehicle or the CB1 antagonist rimonabant. […]

mean arterial pressure = experiment: Mean arterial pressure in anesthetized rats; conditions: anesthetized rat
Method: Male Sprague-Dawley rats were anesthetized with the long acting barbiturate, Inactin. Catheters were placed in the femoral artery for measurement of MAP and HR. Additional catheters were placed in the femoral vein for compound administration and saline infusion to maintain hydration. Following a 30-minute control period, vehicle (PEG400), compound B (vehicle: PEG400; 2 ml/kg) or CB2 agonist B (vehicle: PEG400; 2 ml/kg) plus CB1 antagonist rimonabant (vehicle: PEG400; 1 ml/kg) was administered intravenously over a 30-minute infusion. When administered simultaneously, compound B and rimonabant were infused individually using separate syringes. The doses tested were 1.0 mg/kg for compound B and 3.2 mg/kg for rimonabant. Data is expressed as mean from 3 rats ±sem. […] These effects indicate that the reduction in blood pressure by CB2 agonist B results from its residual activation of the CB1 receptor.

## COCCn1c(C)c(C)s/c1=N\C(=O)C1C(C)(C)C1(C)C [compound B, (Z)—N-(3-(2-methoxyethyl)-4,5-dimethylthiazol-2(3H)-ylidene)-2,2,3,3-tetramethylcyclopropanecarboxamide]
[1]; 30 and 45 μmol/kg i.p., tested 30 min after administration
  spontaneous locomotor activity, agonist alone: significantly reduces spontaneous locomotor activity
[1]; rimonabant 30 μmol/kg i.p. 15 min before CB2 agonist B
  spontaneous locomotor activity, agonist after rimonabant: reduction in locomotor activity was eliminated
Hind limb grip force; rimonabant 30 μmol/kg i.p. 15 min before
  reduction of grip force, agonist after rimonabant: completely blocked
Hind limb grip force; tested 30 min after second dose
  reduction of grip force, agonist after vehicle: 42%
Mean arterial pressure; 1.0 mg/kg i.v. plus rimonabant 3.2 mg/kg i.v., 30-minute infusion
  effect on mean arterial pressure (MAP), agonist with rimonabant: devoid of an effect on blood pressure relative to vehicle
Mean arterial pressure; 1.0 mg/kg intravenously over 30-minute infusion
  effect on mean arterial pressure (MAP), agonist alone: has an effect to reduce blood pressure

## CCCCn1cc(C(C)(C)C)s/c1=N\C(=O)c1cc(Cl)ccc1OC [compound A, (Z)—N-(5-tert-butyl-3-butylthiazol-2(3H)-ylidene)-5-chloro-2-methoxybenzamide]
[1]; 30 μmol/kg i.p. after vehicle, tested 30 min after second dose
  decrease of horizontal locomotor activity, agonist after vehicle: 91%
[1]
  horizontal locomotor activity, agonist after rimonabant: much reduced side effects
[1]; listed as CB2 agonist A
  horizontal locomotor activity, agonist after rimonabant: able to block said decrease
